Assay results from PubChem BioAssay (NCI).
Where “and” joins values, the source holds several entries; their conditions need not be identical. Equal values may be shown once.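 How tested: cells in 96-well plates exposed to compound for 48 hours at five concentrations. At the GI50, growth is halved. The concentration for full growth arrest is given as TGI.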

Key:
Test in all cases: NCI-60 cell line screen, 48 h
NCI/ADR-RES ovarian = tested on: NCI/ADR-RES ovarian
RXF 393 renal = tested on: RXF 393 renal
DU-145 prostate = tested on: DU-145 prostate
MOLT-4 leukemia = tested on: MOLT-4 leukemia
786-0 renal = tested on: 786-0 renal
OVCAR-3 ovarian = tested on: OVCAR-3 ovarian
A549 NSCLC = tested on: A549 NSCLC
ACHN renal = tested on: ACHN renal
TK-10 renal = tested on: TK-10 renal
SF-295 CNS = tested on: SF-295 CNS

Compound	TGI (NCI/ADR-RES ovarian)	TGI (RXF 393 renal)	TGI (DU-145 prostate) [µM]	TGI (MOLT-4 leukemia)	TGI (786-0 renal)	TGI (OVCAR-3 ovarian)	TGI (A549 NSCLC)	TGI (ACHN renal) [µM]	TGI (TK-10 renal) [µM]	TGI (SF-295 CNS) [µM]	GI50 (NCI/ADR-RES ovarian) [µM]	GI50 (RXF 393 renal) [µM]	GI50 (DU-145 prostate) [µM]	GI50 (MOLT-4 leukemia) [µM]	GI50 (786-0 renal) [µM]	GI50 (OVCAR-3 ovarian) [µM]	GI50 (A549 NSCLC) [µM]	GI50 (ACHN renal) [µM]	GI50 (TK-10 renal) [µM]	GI50 (SF-295 CNS) [µM]
CCOC(=O)C(C#N)C1=CC(=O)C(=O)c2ccc(OC)cc21 (configuration not stated)	51.3 µM	47.5 µM	38.2	> 100 µM	64.9 µM	47.5 µM	41 µM	30.9	> 100	58.3	–	–	–	–	–	–	–	–	–	–
O=C(Nc1ccc(Br)cc1F)c1cc(F)ccc1O	5.4 µM	3.1 µM	64.6	6.4 µM	7.49 µM	6.64 µM	> 100 µM	11.3	18	3.42	0.533	0.554	0.698	1.86	2.41	0.411	1.69	0.499	3.26	1.76
O=C(Nc1ccc(Nc2ccncc2)cc1)c1ccc([N+](=O)[O-])cc1	> 62.5 µM	12.4 µM	42	> 33.3 µM	14.6 µM	3.76 µM	33.1 µM	19.7	31.3	10.3	14.2	3.35	8.87	3.3	3.47	1.93	10	4.62	11.2	3.79
O=C(Nc1ccc2ncccc2c1)Nc1ccc2ncccc2c1	> 100 µM	> 100 µM	> 100	> 100 µM	> 100 µM	> 100 µM	> 100 µM	> 100	> 100	> 100	–	–	–	–	–	–	–	–	–	–
COC(=O)c1ccc2c(c1)nc(NC(=O)c1ccccc1)n2CCCc1ccccc1	> 100 µM	> 100 µM	> 100	> 100 µM	> 100 µM	> 100 µM	> 100 µM	> 100	> 100	> 100	4.1	16.3	11.5	2.78	4.77	7.29	3.6	3.75	8.86	3.62
C[N+](C)(C)CC1CCCc2ccccc2C1=O (configuration not stated)	54 µM	30.1 µM	> 56.3	7.79 µM and 1.06 µM	6.44 µM and 21.7 µM	17.7 µM	5.72 µM and 36.6 µM	9.71	36.8	> 55	22.4	15.8	–	0.388	8.46	–	18.6	–	–	–
Cn1c(I)c(C#CCO[Si](C)(C)C(C)(C)C)c(=O)[nH]c1=O	38.1 µM	34.3 µM	28.6	4.32 µM	33.2 µM	16.2 µM	> 100 µM	29.5	30.2	> 100	19.2	18.8	15.3	1.82	18.6	6.49	> 100	15.9	16.3	> 100
Cc1ccc(SC2c3ccc(C)cc3Oc3nc(N)c(C#N)c(N)c32)cc1 (configuration not stated)	9.73 µM	3.28 µM	3.36	6.09 µM	3.16 µM	3.22 µM	17.3 µM	2.99	3.39	19.5	2.79	1.81	1.86	2.27	1.72	1.77	4.9	1.63	1.95	6.77
CC1=C(C(=O)Nc2ccc(F)c(Cl)c2)C(c2ccccc2O)NC(=S)N1 (configuration not stated)	> 50 µM	> 50 µM	45.7	> 50 µM	> 50 µM	42.6 µM	> 50 µM	> 50	> 50	> 50	> 50	2.15	17.3	17.8	> 50	12.6	19.6	> 50	> 50	35.4
CCOC(=O)C1=CN(C)C=C(C(=O)OCC)C1c1cc(Br)c(OCC)c(OC)c1	> 100 µM	> 100 µM	> 100	> 100 µM	> 100 µM	> 100 µM	> 100 µM	> 100	> 100	> 100	> 100	8.74	> 100	> 100	> 100	48	81.7	> 100	> 100	41.1
Cc1cc(Cl)cc(OCCn2cc(F)cn2)c1-c1nc(N)nc2c1CN(C(=O)NCC(C)(F)F)C2	> 100 µM	> 100 µM	> 100	> 100 µM	> 100 µM	> 100 µM	> 100 µM	> 100	> 100	> 93.9	53.1	–	0.0652	0.112	3.18	0.54	0.116	0.184	0.144	0.131
COc1cc(OCc2cccc(-c3ccc(C(O)c4nccs4)cc3)c2C)cc(OC)c1C=O (configuration not stated)	14.7 µM	6.93 µM	10.5	5.88 µM	7.2 µM	4.36 µM	11.6 µM	6.68	13.7	6.58	2.84	2.22	2.81	1.9	2.16	1.62	2.32	1.72	1.69	2.12
C(=NCCN1CCOCC1)=NC1CCCCC1	> 100 µM	> 100 µM	> 100	> 100 µM	> 100 µM	> 100 µM	> 100 µM	> 100	> 100	> 100	–	–	–	–	–	–	–	–	–	–
CN(C)CCNC(=O)c1cccc2ccc(-c3ccc(O)cc3)nc12	23.7 µM and 26.3 µM	17.4 µM and 19.8 µM	10.6	0.692 µM	14.4 µM	15.2 µM and 15.9 µM	7.17 µM	4.98	9.57	10.8	6.8	5.65	–	–	–	–	–	–	–	2.82
